Data published in the Deep4Chem optical property database.
Values belong to the compound of their own block, whether it stands above or below them.

Experiment: solvent given as SMILES

emission maximum (in C1CCCCC1): 403 nm
emission maximum (in C1COCCO1): 416 nm
emission maximum (in CC#N): 431 nm
emission maximum (in CCO): 440 nm
emission maximum (in OCC(F)(F)F): 469 nm
Structure (SMILES): Cc1oc2c(Cl)cc3c(C)cc(=O)oc3c2c1C

emission maximum (in c1cc(-c2cccc(-n3c4ccccc4c4ccccc43)c2)cc(-n2c3ccccc3c3ccccc32)c1): 446 nm
Structure (SMILES): Cc1cc(-c2nc(-c3ccccc3)nc(-c3ccccc3)n2)c(C)cc1-c1ccc2c(c1)C1(c3ccccc3-c3ccccc31)c1ccccc1N2c1ccccc1

emission maximum (in C1CCCCC1): 400 nm
emission maximum (in CO): 420 nm
Structure (SMILES): COc1ccc(/C=C/c2nc3ccccc3s2)cc1

emission maximum (in CCO): 580 nm
emission maximum (in ClCCl): 577 nm
Structure (SMILES): Cc1ccccc1-c1c2ccc(=[N+]3CCN(C(=O)OC(C)(C)C)CC3)cc-2oc2cc(N3CCN(C(=O)OC(C)(C)C)CC3)ccc12

emission maximum (in C1CCOC1): 349 nm
emission maximum (in C1COCCO1): 348 nm
emission maximum (in CC#N): 362 nm
emission maximum (in CC(C)O): 362 nm
emission maximum (in CCO): 364 nm
emission maximum (in CO): 367 nm
emission maximum (in CS(C)=O): 371 nm
emission maximum (in O): 390 nm
emission maximum (in OCC(F)(F)F): 374 nm
Structure (SMILES): N#Cc1ccc2[nH]ccc2c1

emission maximum (in C1CCOC1): 357 nm
emission maximum (in CS(C)=O): 389 nm
emission maximum (in ClC(Cl)Cl): 410 nm
emission maximum (in ClCCl): 347 nm
Structure (SMILES): COc1ccc(-c2nc(-c3ccccc3O)c(-c3ccccc3O)n2-c2ccc(C)cc2)cc1

Structure (SMILES): CC(C)(C)c1ccc2c(c1)sc1[n+]2[B-](F)(F)n2c(c3cccc4cccc2c43)=N1
emission maximum (in C1CCOC1): 504 nm
emission maximum (in CC#N): 502 nm
emission maximum (in CCCCCC): 504 nm
emission maximum (in Cc1ccccc1): 506 nm
emission maximum (in ClCCl): 534 nm

emission maximum (in ClCCl): 432 nm
Structure (SMILES): Cc1nc(-c2cc(C(F)(F)F)ccc2O)n2c1CCCC2

Structure (SMILES): COc1cc2c3c4c(c5ccc(C(C)(C)C)cc5c5cc(C(C)(C)C)cc(c2c(OC)c1OC)c45)=[N+]1C3=Nc2c3c4cc(OC)c(OC)c(OC)c4c4cc(C(C)(C)C)cc5c6cc(C(C)(C)C)ccc6c(c3c54)n2[B-]1(F)F
emission maximum (in Cc1ccccc1): 832 nm

emission maximum (in C1CCOC1): 414 nm
Structure (SMILES): O=P1(c2ccccc2)C(c2ccc(C(F)(F)F)cc2)=Cc2ccccc21 (configuration not stated)

emission maximum (in C1CCOC1): 526 nm
Structure (SMILES): C[Si]1(c2ccccc2)C(c2ccc3c(c2)c2ccccc2n3-c2ccccc2)=C(c2ccccc2)C(c2ccccc2)=C1c1ccc2c(c1)c1ccccc1n2-c1ccccc1

emission maximum (in O): 665 nm
Structure (SMILES): COc1ccc(OC)c(C2=C3C=CC(=[N+](C)C)C=C3[Si](C)(C)c3cc(N(C)C)ccc32)c1

emission maximum (in CN(C)C=O): 720 nm
Structure (SMILES): CCN(CC)c1ccc(/C=C2\CC/C(=C\c3ccc(N(c4ccc(/C=C5\CC/C(=C\c6ccc(N(CC)CC)cc6)C5=C(C#N)C#N)cc4)c4ccc(/C=C5\CC/C(=C\c6ccc(N(CC)CC)cc6)C5=C(C#N)C#N)cc4)cc3)C2=C(C#N)C#N)cc1

Structure (SMILES): CCCCOC(=O)c1cc(Oc2ccc(C(C)(C)C)cc2)c2c3c(Cl)cc4c5c(cc(Cl)c(c6c(Oc7ccc(C(C)(C)C)cc7)cc(C(=O)OCCCC)c1c26)c53)C(=O)N(c1c(C(C)C)cccc1C(C)C)C4=O
emission maximum (in Cc1ccccc1): 589 nm

Structure (SMILES): CCC1=C(C)C2=C(c3cc(C(=O)Cl)cc(C4=C5C(C)=C(CC)C(C)=[N+]5[B-](F)(F)n5c(C)c(CC)c(C)c54)c3)c3c(C)c(CC)c(C)n3[B-](F)(F)[N+]2=C1C
emission maximum (in C1CCOC1): 549 nm
emission maximum (in CC#N): 548 nm
emission maximum (in CN(C)C=O): 560 nm
emission maximum (in Cc1ccccc1): 562 nm
emission maximum (in ClC(Cl)Cl): 562 nm

Structure (SMILES): COc1cc(OC)cc(C2=[O+][B-](F)(F)OC(c3ccc4ccccc4c3)=C2)c1
emission maximum (in CC#N): 521.21 nm
emission maximum (in CC(C)=O): 521.21 nm
emission maximum (in CCCCCC): 418.89 nm
emission maximum (in Cc1ccccc1): 492.31 nm
emission maximum (in ClCCl): 560 nm

emission maximum (in C1CCOC1): 444 nm
Structure (SMILES): CCCCCOc1cc2oc(=O)c3c4ccc(C#N)cc4c4ccc5cccc6c(c1)c2c3c4c56

emission maximum (in ClCCl): 426 nm
Structure (SMILES): CC(C)(C)c1ccc(-n2c(-c3ccc(-c4ccc(-c5c(-c6ccccc6)nc6ccccn56)cc4)cc3)nc3c4ccccc4c4ccccc4c32)cc1

emission maximum (in ClCCl): 493 nm
Structure (SMILES): CCOC(=O)c1ccc(C2CC(c3cccc4ccccc34)=NN2c2ccc(C)cc2)cc1 (configuration not stated)

emission maximum (in CC#N): 480 nm
emission maximum (in ClCCl): 471 nm
Structure (SMILES): Cc1cc(O)c(C(=O)/C=C/c2ccccc2[N+](=O)[O-])c(=O)o1

emission maximum (in C1CCOC1): 623 nm
emission maximum (in CC#N): 640 nm
emission maximum (in CCO): 641 nm
emission maximum (in CCOC(C)=O): 618 nm
emission maximum (in ClCCl): 625 nm
emission maximum (in c1ccccc1): 596 nm
Structure (SMILES): CC1(C)CC(/C=C/c2ccc(N3CCOCCOCCOCCOCC3)cc2)=CC(=C(C#N)C#N)C1

emission maximum (in C1CCCCC1): 412 nm
emission maximum (in C1CCOC1): 409 nm
emission maximum (in CC#N): 407 nm
emission maximum (in CCOC(C)=O): 410 nm
emission maximum (in CS(C)=O): 405 nm
emission maximum (in ClC(Cl)Cl): 411 nm
Structure (SMILES): N#Cc1cc2ccccc2oc1=O

emission maximum (in ClCCl): 418 nm
Structure (SMILES): CCn1c2ccccc2c2c(N(c3ccccc3)c3ccccc3)cccc21

emission maximum (in CCO): 672 nm
emission maximum (in O): 684 nm
Structure (SMILES): CC[N+](CC)=c1ccc2nc3c(cc(NCCC(=O)NC(C)C(=O)OC)c4ccccc43)oc-2c1 (configuration not stated)

emission maximum (in ClCCl): 461 nm
Structure (SMILES): CCN(CC)c1ccc2c(c1)oc(=O)c1c(C)nc3c(c(-c4ccccc4)nn3C)c12

emission maximum (in CCO): 532 nm
Structure (SMILES): Nc1ccc2c(-c3ccc(Br)cc3)c3ccc(=[NH2+])cc-3oc2c1

emission maximum (in ClC(Cl)Cl): 637 nm
Structure (SMILES): CCCN1c2ccccc2Sc2cc(/C=C\c3cc(=O)oc4ccc(C)cc34)ccc21

emission maximum (in CC#N): 572 nm
Structure (SMILES): C[n+]1ccn(CCCCc2ccc3c(c2)c2ccccc2n3-c2cc(C#N)c(C#N)cc2-n2c3ccccc3c3cc(CCCCn4cc[n+](C)c4)ccc32)c1

emission maximum (in ClCCl): 494 nm
Structure (SMILES): CCCc1ccc(C#Cc2cc(C#Cc3ccc(CCC)cc3)c3ccc4c(C#Cc5ccc(CCC)cc5)cc(C#Cc5ccc(CCC)cc5)c5ccc2c3c54)cc1

emission maximum (in C1CCCCC1): 340 nm
emission maximum (in CC#N): 343 nm
emission maximum (in CCO): 344 nm
emission maximum (in CCOC(C)=O): 342 nm
Structure (SMILES): COC(=O)c1nc(-c2cccc3ccccc23)oc1C

emission maximum (in C1CCOC1): 457 nm
Structure (SMILES): COc1ccc(-c2cc3oc(=O)cc(C)c3cc2-c2ccc(OC)c(OC)c2)cc1OC

emission maximum (in ClCCl): 535 nm
Structure (SMILES): [O-][n+]1c(/C=C/c2ccccc2)nc(N2CCOCC2)c2c1CCCC2

emission maximum (in CC#N): 513 nm
emission maximum (in CCCCCC): 514 nm
emission maximum (in CCOC(C)=O): 514 nm
emission maximum (in CO): 512 nm
emission maximum (in ClCCl): 518 nm
Structure (SMILES): COc1ccc2n1[B-](F)(F)[N+]1=CC=CC1=C2c1ccccc1

emission maximum (in C1CCCCC1): 593 nm
emission maximum (in CC#N): 591 nm
emission maximum (in CCO): 595 nm
emission maximum (in CCOC(C)=O): 591.5 nm
emission maximum (in CO): 593.5 nm
emission maximum (in OCC(F)(F)F): 588 nm
Structure (SMILES): Cc1ccc(C2=C3C=C(I)C(I)=[N+]3[B-](F)(F)n3c2cc(I)c3I)cc1

emission maximum (in ClC(Cl)Cl): 422 nm
Structure (SMILES): COC(=O)c1ccc2cc(C#N)c3ccc4ccccc4c3c2c1

emission maximum (in CC#N): 446 nm
Structure (SMILES): COC(=O)c1c(NC(C)(C)C)oc(-c2ccc(-c3ccccc3)cc2)c1C(=O)OC

Structure (SMILES): CCn1c2ccccc2c2cc(-c3cc(-c4ccc5c(c4)c4ccccc4n5CC)nc(N4CCCCC4)n3)ccc21
emission maximum (in C1CCOC1): 408 nm
emission maximum (in CCOC(C)=O): 409 nm
emission maximum (in CN(C)C=O): 417 nm
emission maximum (in Cc1ccccc1): 406 nm
emission maximum (in ClCCl): 414 nm

Structure (SMILES): Cc1cc(C)c(B(c2ccc(-c3ccc4ccc5cccc6ccc3c4c56)cc2)c2c(C)cc(C)cc2C)c(C)c1
emission maximum (in Cc1ccccc1): 431 nm

emission maximum (in ClCCl): 544 nm
Structure (SMILES): Cc1cc(-c2ccc3ccccc3c2)cc(C)[o+]1

emission maximum (in C1CCOC1): 439 nm
Structure (SMILES): N#Cc1ccc(/C=C/C(F)(F)F)c(N)c1

Structure (SMILES): CCCC1=Cc2nc1ccc1[nH]c(cc1CCC)c1nc(c(OC)cc3[nH]c2cc3CCC)C(CCC)=C1
emission maximum (in Cc1ccccc1): 688 nm

Structure (SMILES): COc1ccc(-c2nc(N)nc(C#N)c2C#N)cc1OC
emission maximum (in C1COCCO1): 428 nm
emission maximum (in CC#N): 456 nm
emission maximum (in CC(C)=O): 430 nm
emission maximum (in CCO): 436 nm
emission maximum (in CCOC(C)=O): 442 nm
emission maximum (in CO): 442 nm

Structure (SMILES): COc1ccc2c(c1)c1c(c3cc(OC)ccc32)=[N+]2C(=C(c3c(C)cc(C)cc3C)c3cc4c5cc(OC)ccc5c5ccc(OC)cc5c4n3[B-]2(F)F)C=1
emission maximum (in C1CCCCC1): 710 nm
emission maximum (in C1CCOC1): 713 nm
emission maximum (in CC#N): 711 nm
emission maximum (in Cc1ccccc1): 717 nm
emission maximum (in ClCCl): 713 nm

emission maximum (in ClC(Cl)Cl): 475 nm
Structure (SMILES): N#Cc1c2oc3ccccc3oc2c(C#N)c2oc3ccccc3oc12

emission maximum (in ClCCl): 587 nm
Structure (SMILES): COc1ccccc1C1=[N+]2C(=C(c3ccccc3)c3c4c(c(-c5ccccc5OC)n3[B-]2(F)F)C2C=CC4CC2)C2=C1C1C=CC2CC1 (configuration not stated)

emission maximum (in CN(C)C=O): 449 nm
emission maximum (in O): 449 nm
Structure (SMILES): CC[N+]1(CC)CN2C(C)=CC(C)=C(C(=O)O)C2=N1

emission maximum (in ClCCl): 521 nm
Structure (SMILES): C[Si]1(C)O[Si](C)(C)c2cc3c(-c4ccccc4)c4cc([N+](=O)[O-])ccc4nc3cc21

emission maximum (in ClCCl): 350 nm
Structure (SMILES): c1ccc(-n2c3ccccc3c3cc([Si](c4ccccc4)(c4ccccc4)c4ccc5c(c4)c4ccccc4n5-c4ccccc4)ccc32)cc1

emission maximum (in ClCCl): 407 nm
Structure (SMILES): CCCCn1c(-c2ccc(-c3nnc(-c4ccc(-c5nc6ccccc6n5CCCC)cc4)o3)cc2)nc2ccccc21

emission maximum (in CO): 586 nm
Structure (SMILES): CC1=CC(/C=C/c2ccc(OCCCN=[N+]=[N-])cc2)=[N+]2C1=C(c1ccc(N(C)C)cc1)c1c(C)cc(C)n1[B-]2(F)F

emission maximum (in CCO): 457 nm
Structure (SMILES): Cc1c(COC(=O)c2ccccc2)n2c(OCC(=O)c3ccccc3)c(C)c(=O)n2c1=O

Structure (SMILES): c1ccc(N2c3ccccc3Sc3cc(-c4cccc5nc6ccccc6cc45)ccc32)cc1
emission maximum (in C1CCOC1): 476 nm
emission maximum (in CC#N): 504 nm
emission maximum (in CC(C)=O): 495 nm
emission maximum (in CC(C)OC(C)C): 546 nm
emission maximum (in CCCCCC): 487 nm
emission maximum (in CCCCOCCCC): 533 nm
emission maximum (in CCN(CC)CC): 525 nm
emission maximum (in CCOC(C)=O): 474 nm
emission maximum (in CCOCC): 549 nm
emission maximum (in CN(C)C=O): 495 nm
emission maximum (in ClCCl): 483 nm

emission maximum (in ClCCl): 490 nm
Structure (SMILES): Cc1cc(C)n2c1C=[N+]1[N+](=C3C=NC=CN3[B-]1(F)F)[B-]2(F)F

Structure (SMILES): O=P1(c2ccccc2)c2cc(N3c4ccccc4Sc4ccccc43)ccc2-c2ccc(N3c4ccccc4Sc4ccccc43)cc21
emission maximum (in Cc1ccccc1): 557 nm
emission maximum (in c1ccc2c(c1)c1ccccc1n2-c1ccc(-c2ccc(-n3c4ccccc4c4ccccc43)cc2)cc1): 554 nm
